# According to ChEMBL document CHEMBL4613239, “α-Glucosidase and Protein Tyrosine Phosphatase 1B Inhibitors from Malbranchea circinata” (J Nat Prod, 2020):
# The source made the active and inactive calls. The calls are words filed in the database; no cut-off is given here.
# Key:
# [1] = molecular target: T1, Tyrosine-protein phosphatase non-receptor type 1 (Homo sapiens, UniProt P18031); experiment: (§1) Inhibition of human PTP1B expressed in Escherichia coli BL21 (DE3) cells using PNPP as substate preincubated for 5 mins followed by substrate additon and measured after 15 mins
# T1 sequence (P18031 whole entry): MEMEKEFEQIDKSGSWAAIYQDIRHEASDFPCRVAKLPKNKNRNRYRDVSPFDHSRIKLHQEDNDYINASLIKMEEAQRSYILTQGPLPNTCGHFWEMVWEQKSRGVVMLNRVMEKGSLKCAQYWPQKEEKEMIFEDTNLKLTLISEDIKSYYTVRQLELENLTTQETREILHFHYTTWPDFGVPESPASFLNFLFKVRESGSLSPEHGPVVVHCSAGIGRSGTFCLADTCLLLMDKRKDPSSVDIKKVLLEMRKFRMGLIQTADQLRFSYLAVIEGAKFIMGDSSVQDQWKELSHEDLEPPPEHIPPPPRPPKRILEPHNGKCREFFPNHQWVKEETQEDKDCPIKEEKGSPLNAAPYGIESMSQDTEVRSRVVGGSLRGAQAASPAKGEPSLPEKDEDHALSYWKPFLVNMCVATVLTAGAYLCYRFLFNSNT
# [2] = Inhibition of Saccharomyces cerevisiae alpha-glucosidase using pNPG as substrate preincubated for 10 mins followed by substrate addition after 20 mins
# [3] = molecular target: T2, Tyrosine-protein phosphatase non-receptor type 1 (Homo sapiens) (UniProt P18031); experiment: as §1
# T2 sequence (whole entry): T1 sequence (P18031 whole entry)
# [4] = Inhibition of rat intestinal rat alpha-glucosidase
# Mus musculus = experiment: Induction of hypo glycemic activity in ICR mouse assessed as reduction in postprandial glucose level at 10 mg/kg, po pretreated for 30 mins followed by sucrose treatment and measured after 30 to 120 mins; type: functional, organism-based
IC50 [1] [µM],IC50 [2] [µM],inhibition [3],IC50 [4] [µM],Structure (SMILES),Activity (Mus musculus)
13.9,,,,CC(C)=CCc1ccc(O)c2c(=O)c3c(O)cc(C)c(O)c3oc12,
,261,Active,,Cc1cc(O)c2c(c1)C(=O)c1cc(O[C@H]3O[C@H](CO)[C@@H](O)[C@H]3O)cc(O)c1C2=O,
,586,,151,C[C@H]1O[C@H](O[C@H]2[C@H](O)[C@@H](O)[C@@H](O[C@H]3[C@H](O)[C@@H](O)C(O)O[C@@H]3CO)O[C@@H]2CO)[C@H](O)[C@@H](O)[C@@H]1N[C@H]1C=C(CO)[C@@H](O)[C@H](O)[C@H]1O (stereo partly specified) [ACARBOSE],Active
,,Active,,CC(=O)O[C@H]1[C@@H](O)[C@@H](Oc2cccc3c2C(=O)c2c(O)cc(C)cc2C3=O)O[C@@H]1CO,
,117,Active,,O=C1Nc2ccccc2-c2nc3ccccc3c(=O)n2-c2c(O)cccc21,
,144,Active,,O=C1Nc2ccccc2-c2nc3ccccc3c(=O)n2-c2ccccc21,
10.9,,,,COC1CCC(=O)c2c(O)c(-c3cc(O)c4c(c3O)C(=O)CCC4OC)cc(O)c21 (stereo unspecified),
,,Active,,CC(=O)O[C@H]1[C@@H](Oc2cc(O)c3c(c2)C(=O)c2cc(C)cc(O)c2C3=O)O[C@H](CO)[C@H]1OC(C)=O,
15.3,57.4,,743,C=CC(C)(C)[C@@]12C[C@@H]3C(=O)N4[C@H](C[C@@]5(C(C)(C)C=C)c6ccccc6N[C@@H]45)C(=O)N3[C@@H]1Nc1ccccc12,
,,Active,,CC(=O)OC[C@H]1O[C@H](Oc2cc(O)c3c(c2)C(=O)c2cc(C)cc(O)c2C3=O)[C@H](OC(C)=O)[C@@H]1OC(C)=O,

Structure (SMILES),IC50 [1] [µM],IC50 [2] [µM],inhibition [3],IC50 [4] [µM],Activity (Mus musculus)
CC1(C)c2[nH]c3cc(Cl)c(Cl)cc3c2C[C@@]23CN4CCC[C@]4(C[C@@H]12)C(=O)N3,14.5,71.3,,459,Active
